Reference: US5773449A, “Thioquinolone compounds which have useful pharmaceutical activity” (Zenyaku Kogyo Kabushiki Kaisha, priority 1994, dated 1998)
Values after ≈ are worked out from the molar mass of the structure shown.

How the values were obtained:
Assay type in all cases: cell-based
E.coli NIHJ JC-2 = test: Antibacterial Test 2: agar plate dilution method (aerobic MIC method), E.coli; details: Escherichia coli, NIHJJC2, sensitive-disk agar medium-N
Procedure: (§1) Then, tested were antibacterial activities of the typical compounds of the present invention against gram-positive and-negative bacteria other than Hp. MICs of the typical compounds of the present invention were determined in substantial accordance with agar plate dilution method (aerobic MIC method) based on Standard method of The Japan Society of Chemotherapy.
(§2) The respective test compound were dissolved in dimethyl sulfoxide (DMSO) and serially diluted twofold. These diluted solutions of the compounds were respectively added to sensitive-disk agar medium-N (manufactured by NISSUI SEIYAKU) to prepare agar plates for determination with concentration of 0.05-100 μg/ml.
(§3) The below-mentioned strains freezingly conserved at -135° C. were thawed in a warm bath (40° C.), cultured in a sensitivity-determining bouillon at 37° C. for 18-20 hours, and then diluted with the above-mentioned medium to prepare about 1.0×10^6CFU/ml of bacterial solution.
(§4) Inoculation was made by 5 μl by multi-inoculator (manufactured by SAKUMA SEISAKUSHO). Culturing was made under the same conditions as those of the pre-culturing and the MIC (unit: μg/ml) was determined by observing whether the bacteria grew or not.

P.aeruginosa IFO 3445 = test: Antibacterial Test 2: agar plate dilution method (aerobic MIC method), P.aeruginosa; details: Pseudomonas aeruginosa, IFO3445, sensitive-disk agar medium-N
Procedure: as §1, §2, §3, §4

S.aureus FDA 209P = test: Antibacterial Test 2: agar plate dilution method (aerobic MIC method), S.aureus; details: Staphylococcus aureus, FDA209P, sensitive-disk agar medium-N
Procedure: as §1, §2, §3, §4

[1] = tested on: Helicobacter pylori standard strain ATCC 43526 (NCTC 11916); test: Antibacterial test 1: agar plate dilution method (anaerobic MIC method) against Hp; details: 72 h; Helicobacter pylori ATCC 43526 (NCTC 11916); brucella agar + 7% horse blood, microaerobic, 37° C., 3 days
Procedure: Antibacterial test against Hp was performed in substantial accordance with agar plate dilution method (anaerobic MIC method) based on Standard method of The Japan Society of Chemotherapy to determine minimum inhibitory concentration (MIC) of the respective test compounds. The respective test compounds were sequentially dissolved in dimethyl sulfoxide (DMSO) and serially diluted twofold. […] Strain used for inoculation was Helicobacter pylori standard strain ATCC 43526 (NCTC 11916). For pre-culturing of bacteria to be inoculated, the above-mentioned strain freezingly conserved at -135° C. was thawed in a warm bath (40° C.), applied on a brucella agar medium containing 7% horse blood free from fibrin, and microaerobically cultured in a jar for anaerobic bacteria at 37° C. for 3 days. The solution of bacteria to be inoculated was prepared by collecting colonies grown on the culture medium and suspending the same in the brucella broth.

K.pneumoniae PCI 602 = test: Antibacterial Test 2: agar plate dilution method (aerobic MIC method), K.pneumoniae; details: Klebsiella pneumoniae, PCI602, sensitive-disk agar medium-N
Procedure: as §1, §2, §3, §4

B.subtilis PCI 219 = test: Antibacterial Test 2: agar plate dilution method (aerobic MIC method), B.subtilis; details: Bacillus subtilis, PCI219, sensitive-disk agar medium-N
Procedure: as §1, §2, §3, §4

E.faecalis RIMD 3336001 = test: Antibacterial Test 2: agar plate dilution method (aerobic MIC method), E.faecalis; details: Enterococcus faecalis, RIMD3336001, sensitive-disk agar medium-N
Procedure: as §1, §2, §3, §4

M.luteus ATCC 9341 = test: Antibacterial Test 2: agar plate dilution method (aerobic MIC method), M.luteus; details: Micrococcus luteus, ATCC9341, sensitive-disk agar medium-N
Procedure: as §1, §2, §3, §4

| Structure (SMILES) | MIC (E.coli NIHJ JC-2) | MIC (P.aeruginosa IFO 3445) | MIC (S.aureus FDA 209P) | MIC [1] | MIC (K.pneumoniae PCI 602) | MIC (B.subtilis PCI 219) | MIC (E.faecalis RIMD 3336001) | MIC (M.luteus ATCC 9341) |
| --- | --- | --- | --- | --- | --- | --- | --- | --- |
| S=c1cc[nH]c2c3c(ccc12)CCCC3 [compound 40, 7,8,9,10-Tetrahydrobenzo[h]quinoline-4(1H)-thione] | > 100 µg/mL | > 100 µg/mL | > 100 µg/mL | 0.2 µg/mL | > 100 µg/mL | > 100 µg/mL | > 100 µg/mL | > 100 µg/mL |
| S=c1cc[nH]c2cc(Oc3ccccc3)ccc12 [compound 38, 7-Phenoxyquinoline-4(1H)-thione] | > 100 µg/mL | > 100 µg/mL | > 100 µg/mL | 0.78 µg/mL | > 100 µg/mL | > 100 µg/mL | > 100 µg/mL | > 100 µg/mL |
| COc1cccc2c(=S)cc[nH]c12 [compound 42, 8-Methoxyquinoline-4(1H)-thione] | – | – | – | 0.39 µg/mL | – | – | – | – |
| Cc1ccc2c(=S)cc[nH]c2c1C [compound 55, 7,8-Dimethylquinoline-4(1H)-thione] | > 100 µg/mL | > 100 µg/mL | > 100 µg/mL | 0.39 µg/mL | > 100 µg/mL | > 100 µg/mL | > 100 µg/mL | > 100 µg/mL |
| CCCCCCCCCCCCOc1ccc2c(=S)cc[nH]c2c1 [compound 52, 7-Dodecyloxyquinoline-4(1H)-thione] | – | – | – | 6.25 µg/mL | – | – | – | – |
| CC(=O)c1ccc2c(=S)cc[nH]c2c1 [compound 13, 7-Acetylquinoline-4(1H)-thione] | – | – | – | 1.56 µg/mL | – | – | – | – |
| S=c1cc[nH]c2cc(COc3ccccc3)ccc12 [compound 6, 7-Phenoxymethylquinoline-4(1H)-thione] | > 100 µg/mL | > 100 µg/mL | > 100 µg/mL | 1.56 µg/mL | > 100 µg/mL | > 100 µg/mL | > 100 µg/mL | > 100 µg/mL |
| CSc1ccc2c(=S)cc[nH]c2c1 [compound 17, 7-Methylthioquinoline-4(1H)-thione] | > 100 µg/mL | > 100 µg/mL | > 100 µg/mL | 0.39 µg/mL | > 100 µg/mL | > 100 µg/mL | > 100 µg/mL | > 100 µg/mL |
| NC(=O)c1ccc2c(=S)cc[nH]c2c1 [compound 12, 7-Carbamoylquinoline-4(1H)-thione] | – | – | – | 6.25 µg/mL | – | – | – | – |
| S=c1cc[nH]c2cc(OCc3ccccc3)ccc12 [compound 25, 7-Benzyloxyquinoline-4(1H)-thione] | – | – | – | 6.25 µg/mL | – | – | – | – |
| S=c1cc[nH]c2cc(CCc3ccccc3)ccc12 [compound 31, 7-Phenethylquinoline-4(1H)-thione] | > 100 µg/mL | > 100 µg/mL | > 100 µg/mL | 0.39 µg/mL | > 100 µg/mL | > 100 µg/mL | > 100 µg/mL | > 100 µg/mL |
| CS(=O)(=O)Oc1ccc2c(=S)cc[nH]c2c1 [compound 28, 7-Methanesulfonyloxyquinoline-4(1H)-thione] | > 100 µg/mL | > 100 µg/mL | 25 µg/mL (≈ 97.9 µM) | 0.39 µg/mL | > 100 µg/mL | > 100 µg/mL | 50 µg/mL (≈ 196 µM) | 50 µg/mL (≈ 196 µM) |
| O=[N+]([O-])c1ccc2c(=S)cc[nH]c2c1 [compound 19, 7-Nitroquinoline-4(1H)-thione] | – | – | – | 3.13 µg/mL | – | – | – | – |
| O=C(O)CCCCCOc1ccc2c(=S)cc[nH]c2c1 [compound 51, 7-(5-Carboxy-n-pentyloxy)quinoline-4(1H)-thione] | > 100 µg/mL | > 100 µg/mL | 100 µg/mL (≈ 343 µM) | 1.56 µg/mL | > 100 µg/mL | > 100 µg/mL | 100 µg/mL (≈ 343 µM) | > 100 µg/mL |
| S=c1cc[nH]c2cc(Cc3ccccc3)ccc12 [compound 47, 7-Benzylquinoline-4(1H)-thione] | > 100 µg/mL | > 100 µg/mL | > 100 µg/mL | 0.2 µg/mL | > 100 µg/mL | > 100 µg/mL | > 100 µg/mL | 50 µg/mL (≈ 199 µM) |
| CC(C)c1ccc2c(=S)cc[nH]c2c1 [compound 2, 7-Isopropylquinoline-4(1H)-thione] | > 100 µg/mL | > 100 µg/mL | > 100 µg/mL | 1.56 µg/mL | > 100 µg/mL | > 100 µg/mL | > 100 µg/mL | > 100 µg/mL |
| S=c1cc[nH]c2c1ccc1cccnc12 [compound 45, 1,10-Phenanthroline-4(1H)-thione] | – | – | – | 0.39 µg/mL | – | – | – | – |
| CN(C)c1ccc2c(=S)cc[nH]c2c1 [compound 48, 7-N,N-Dimethylaminoquinoline-4(1H)-thione] | > 100 µg/mL | > 100 µg/mL | 100 µg/mL (≈ 489 µM) | 0.2 µg/mL | > 100 µg/mL | > 100 µg/mL | > 100 µg/mL | > 100 µg/mL |
| CC1(C)S[C@@H]2[C@H](NC(=O)[C@H](N)c3ccc(O)cc3)C(=O)N2[C@H]1C(=O)O [amoxicillin, reference compound] | 3.13 µg/mL (≈ 8.57 µM) | > 100 µg/mL | 0.1 µg/mL (≈ 0.274 µM) | 0.05 µg/mL | 50 µg/mL (≈ 137 µM) | 0.2 µg/mL (≈ 0.547 µM) | 0.2 µg/mL (≈ 0.547 µM) | ≤ 0.05 µg/mL |
| CCCCCCc1ccc2c(=S)cc[nH]c2c1 [compound 15, 7-n-Hexylquinoline-4(1H)-thione] | > 100 µg/mL | > 100 µg/mL | > 100 µg/mL | 0.39 µg/mL | > 100 µg/mL | > 100 µg/mL | > 100 µg/mL | > 100 µg/mL |
| S=c1cc[nH]c2cc(CSc3nc4ccccc4[nH]3)ccc12 [compound 50, 7-(2-Benzimidazolyl)thiomethylquinoline-4(1H)-thione] | > 100 µg/mL | > 100 µg/mL | > 100 µg/mL | 1.56 µg/mL | > 100 µg/mL | > 100 µg/mL | > 100 µg/mL | > 100 µg/mL |
| Cc1cccc2c(=S)cc[nH]c12 [compound 41, 8-Methylquinoline-4(1H)-thione] | > 100 µg/mL | > 100 µg/mL | > 100 µg/mL | 0.78 µg/mL | > 100 µg/mL | > 100 µg/mL | > 100 µg/mL | > 100 µg/mL |
| O=[N+]([O-])c1cccc2c(=S)cc[nH]c12 [compound 7, 8-Nitroquinoline-4(1H)-thione] | – | – | – | 6.25 µg/mL | – | – | – | – |
| CN(C)Cc1ccc2c(=S)cc[nH]c2c1 [compound 33, 7-N,N-Dimethylaminomethylquinoline-4(1H)-thione] | – | – | – | 6.25 µg/mL | – | – | – | – |
| S=c1cc[nH]c2cc(-c3ccc4ccccc4c3)ccc12 [compound 46, 7-(2-Naphtyl)quinoline-4(1H)-thione] | – | – | – | 3.13 µg/mL | – | – | – | – |
| Cc1ccc2c(=S)cc[nH]c2c1 [compound 11, 7-Methylquinoline-4(1H)-thione] | – | – | – | 0.39 µg/mL | – | – | – | – |
